From patent US6544987B2, “Compounds, compositions, and methods for stimulating neuronal growth and elongation” (Pfizer Inc., priority 1999, dated 2003)
Values joined by “and” are separate entries in the source; they are usually repeats but may differ in a detail not shown here. Equal entries are not always repeated.

molecular target: T1, FKBP12 (Homo sapiens, UniProt P62942); experiment: Affinity for FKBP-12 (Ki), succinyl-Ala-Leu-Pro-Phe-pNA chymotrypsin-coupled assay; type: biochemical; settings: Table 2; read-out: FKBP12 Kiapps
Method: In a quartz cuvette, a final 1 mL buffer concentration was reached (50 mM Hepes, 100 mM NaCl, pH 8.0). Within this final reaction volume, 3.5 μL […] FKBP-12 (in 50 mM Hepes, 100 mM NaCl, pH 8.0) and 10 μL test compound in DMSO were added. The reaction was initiated by adding 10 μL chymotrypsin (100 mg/mL in 1 mM HCl) followed by 5 μL (1-20 mM succinyl-Ala-Leu-Pro-Phe-pNA in 240 mM LiCl/TFE).
The absorbance at 390 nm versus time was monitored for up to 400 seconds. Rate constants were determined from the absorbance versus time plots generated.

T1 sequence (P62942 whole entry, species assumed): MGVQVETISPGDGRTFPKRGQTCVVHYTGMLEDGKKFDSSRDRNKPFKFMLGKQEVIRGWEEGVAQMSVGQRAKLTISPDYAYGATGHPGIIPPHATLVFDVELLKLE

| Ki | SMILES |
| --- | --- |
| 193 nM and 218 nM | CCC(C)(C)NS(=O)(=O)N1CCCC[C@H]1C(=O)OCCCCc1ccccc1 [Compound 26, 1-(1,1-Dimethyl-propylsulfamoyl)-piperidine-2S-carboxylic acid 4-phenyl-butyl ester] |
| 1160 nM and 508 nM | O=C(OCCCCc1ccccc1)[C@@H]1CCCCN1S(=O)(=O)Nc1ccccc1 [Compound 24, 1-Phenylsulfamoyl-piperidine-2S-carboxylic acid 4-phenyl-butyl ester] |
| 27700 nM | O=C(OCc1ccccc1)[C@@H]1CCCN1S(=O)(=O)Oc1ccccc1 [Compound 15, 1-Phenoxy sulfonyl-pyrrolidine-2S-carboxylic acid benzyl ester] |
| 930 nM | NC(=O)C1CCCN(S(=O)(=O)N2CCCC[C@H]2C(=O)OCCCCc2ccccc2)C1 (stereo partly drawn) [Compound 51, 1-(3-Carbamoyl-piperidine-1-sulfonyl)-piperidine-2S-carboxylic acid 4-phenyl-butyl ester] |
| 33000 nM | CCC(C)(C)NS(=O)(=O)N1CCC[C@H]1COC(=O)N(CCc1ccccc1)Cc1ccccc1 [Compound 113, Benzyl-phenethyl-carbamic acid (S)-1-(dimethyl-propylsulfamoyl)-pyrrolidin-2-ylmethyl ester] |
| 1300 nM | COc1cc(NS(=O)(=O)N2CCCC[C@H]2C(=O)NCCCN2CCCCC2)cc(OC)c1OC [Compound 91, (S)-1-(3,4,5-Trimethoxy-phenylsulfamoyl)-piperidine-2-carboxylic acid (3-piperidin-1-yl-propyl)-amide] |
| 344 nM | COc1cc(NS(=O)(=O)N2CCCC[C@H]2C(=O)OCCCCc2ccccc2)cc(OC)c1 [Compound 48, 1-(3,5-Dimethoxy-phenylsulfamoyl)-piperidine-2S-carboxylic acid 4-phenyl-butyl ester] |
| 19200 nM | COc1ccc(N(C)S(=O)(=O)N2CCCC[C@H]2C(=O)OCCCCc2ccccc2)cc1 [Compound 43, 1-[(4-methoxy-phenyl)-methyl-sulfamoyl]-piperidine-2S-carboxylic acid 4-phenyl-butyl ester] |
| 13100 nM | COc1ccc(N(C)S(=O)(=O)N2CCCC[C@H]2C(=O)OCCCCc2ccccc2)cc1N [Compound 55, (S)-1-[(3-Amino-4-methoxy-phenyl)-methyl-sulfamoyl]-piperidine-2-carboxylic acid 4-phenyl-butyl ester] |
| 127 nM | O=C(OC(COCc1ccccc1)COCc1ccccc1)[C@@H]1CCCCN1S(=O)(=O)Nc1cnc(N2CCOCC2)c(C(F)(F)F)c1 [Compound 108, (S)-1-(Morpholin-4-yl-trifluoromethyl-pyridin-3-ylsulfamoyl)-piperidine-2-carboxylic acid 2-benzyloxy-1-benzyloxymethyl-ethyl ester] |
| 26000 nM | COc1ccc(N(C)S(=O)(=O)N2CCCC[C@H]2C(=O)OCCCCc2ccccc2)cc1[N+](=O)[O-] [Compound 54, (S)-1-[(4-Methoxy-3-nitro-phenyl)-methyl-sulfamoyl]-piperidine-2-carboxylic acid 4-phenyl-butyl ester] |
| 1790 nM and 1170 nM | O=C(OCc1ccccc1)[C@@H]1CCCCN1S(=O)(=O)Nc1ccc(N2CCOCC2)nc1 [Compound 86, (S)-1-(6-Morpholin-4-yl-pyridin-3-ylsulfamoyl)-piperidine-2-carboxylic acid Benzyl ester] |
| 16900 nM | O=C(NCCCc1ccccc1)[C@@H]1CCCN1S(=O)(=O)Nc1cccnc1 [Compound 118, (S)-1-(Pyridin-3-ylsulfamoyl)-pyrrolidine-2-carboxylic acid (3-phenyl-propyl)-amide] |
| 122000 nM | NS(=O)(=O)N1CCCC[C@H]1C(=O)OCc1ccccc1 [Compound 37, 1-sulfamoyl-piperidine-2S-carboxylic acid Benzyl ester] |
| 2800 nM | CCC(C)(C)NS(=O)(=O)N1CCC[C@H]1C(=O)OCc1ccccc1 [Compound 27, 1-(1,1-Dimethyl-propylsulfamoyl)-pyrrolidine-2S-carboxylic acid Benzyl ester] |

Second part, the molecule before the results:

| SMILES | Ki |
| --- | --- |
| CCC(C)(C)NS(=O)(=O)N1CCC[C@H]1C(=O)NCCCc1cccnc1 [Compound 114, (S)-1-(1,1-Dimethyl-propylsulfamoyl)-pyrrolidine-2-carboxylic acid (3-pyridin-3-yl-propyl)-amide] | 1110 nM |
| O=C(OCc1ccccc1)[C@@H]1CCCN1S(=O)(=O)Nc1cccnc1 [Compound 115, (S)-1-(Pyridin-3-ylsulfamoyl)-pyrrolidine-2-carboxylic acid benzyl ester] | 20400 nM |
| COc1ccc(NS(=O)(=O)N2CCCC[C@H]2C(=O)OCCCCc2ccccc2)cn1 [Compound 49, 1-(6-methoxy-pyridin-3-ylsulfamoyl)-piperidine-2S-carboxylic acid 4-phenyl-butyl ester] | 80 nM |
| O=C(OCCCCc1ccccc1)[C@@H]1CCCCN1S(=O)(=O)Nc1ccc2nc[nH]c2c1 [Compound 56, (S)-1-(3H-Benzoimidazol-5-ylsulfamoyl)-piperidine-2-carboxylic acid 4-phenyl-butyl ester] | 477 nM |
| COc1cccc(NS(=O)(=O)N2CCCC[C@H]2C(=O)OCCCCc2ccccc2)c1 [Compound 98] | 218 nM |
| COc1ccc(NS(=O)(=O)N2CCCC[C@H]2C(=O)OCc2ccccc2)cn1 [Compound 87, 1-(6-Methoxy-pyridin-3-ylsulfamoyl)-piperidine-2S-carboxylic acid Benzyl ester] | 760 nM |
| COc1cc(NS(=O)(=O)N2CCCC[C@H]2C(=O)OC(COCc2ccccc2)COCc2ccccc2)cc(OC)c1OC [Compound 102, (S)-1-(3,4,5-Trimethoxy-phenylsulfamoyl)-piperidine-2-carboxylic acid 2-benzyloxy-1-benzyloxymethyl-ethyl ester] | 171 nM |
| COc1cc(NS(=O)(=O)N2CCCC[C@H]2C(=O)NCCCCc2ccccc2)cc(OC)c1OC [Compound 59, (S)-1-(3,4,5-Trimethoxy-phenylsulfamoyl)-piperidine-2-carboxylic acid (4-phenyl-butyl)-amide] | 148 nM |
| COc1cc(NS(=O)(=O)N2CCCC[C@H]2C(=O)O)cc(OC)c1OC [Compound 39, 1-(3,4,5-Trimethoxy-phenylsulfamoyl)-piperidine-2S-carboxylic acid] | > 100000 nM |
| O=C(OCCCCc1ccccc1)[C@@H]1CCCCN1S(=O)(=O)Nn1cccc1 [Compound 47, 1-(Pyrrol-1-ylsulfamoyl)-piperidine-2S-carboxylic acid 4-phenylbutyl ester] | 1600 nM |
| COc1ccc(NS(=O)(=O)N2CCCC[C@H]2C(=O)OC(COCc2ccccc2)COCc2ccccc2)cn1 [Compound 103, (S)-1-(6-Methoxy-pyridin-3-ylsulfamoyl)-piperidine-2-carboxylic acid 2-benzyloxy-1-benzyloxymethyl-ethyl ester] | 39 nM |
| COc1ccc(N(C)S(=O)(=O)N2CCCC[C@H]2c2nnc(Cc3ccccc3)o2)cc1 [Compound 77, 2-(5-Benzyl-[1,3,4]oxadiazol-2-yl)-piperidine-1-sulfonic acid (4-methoxy-phenyl)-methyl-amide] | 68000 nM |

molecular target: T1, FKBP12; experiment: Rotamase inhibition assay (N-succinyl-Ala-Ala-Pro-Phe-p-nitroanilide, chymotrypsin-coupled); type: biochemical; settings: Table 1; read-out: Rotamase Ki(app)
Method: In the rotamase inhibition assay, isomerization of an artificial substrate N-succinyl-Ala-Ala-Pro-Phe-p-nitroanilide is followed spectrophotometrically. The assay includes the cis form of the substrate, FKBP12, the compound being tested, and chymotrypsin. Chymotrypsin is able to cleave p-nitroaniline from the trans form of the substrate, but not from the cis form. Release of p-nitroaniline is measured spectrophotometrically. Using this assay, various amounts of the FKBP rotamase-inhibiting compounds of formula (I) were added to cis-N-succinyl-alanine-alanine-proline-phenylalanine-para-nitroaniline (BACHEM, 3132 Kashiwa Street, Torrance, Calif. 90505) in the presence of FKBP12 and chymotrypsin. Spectrophotometric measurements of p-nitroaniline concentrations allowed estimation of the apparent Ki values, which are provided in Table 1 below.

| Ki | SMILES |
| --- | --- |
| 193 nM | CCC(C)(C)NS(=O)(=O)N1CCCC[C@H]1C(=O)OCCCCc1ccccc1 [Compound 26, 1-(1,1-Dimethyl-propylsulfamoyl)-piperidine-2S-carboxylic acid 4-phenyl-butyl ester] |
| 1160 nM | O=C(OCCCCc1ccccc1)[C@@H]1CCCCN1S(=O)(=O)Nc1ccccc1 [Compound 24, 1-Phenylsulfamoyl-piperidine-2S-carboxylic acid 4-phenyl-butyl ester] |

More lines, now with the values behind:

| SMILES | Ki |
| --- | --- |
| CCC(C)(C)NS(=O)(=O)N1CCCC[C@H]1C(=O)OC(CCCc1ccccc1)CCCc1ccccc1 [Compound 23, 1-(1,1-Dimethyl-propylsulfamoyl)-piperidine-2S-carboxylic acid 4-phenyl-1-(3-phenyl-propyl)-butyl ester] | 6990 nM |
| COc1cc(NS(=O)(=O)N2CCCC[C@H]2C(=O)OC(CCCc2ccccc2)CCCc2ccccc2)cc(OC)c1OC [Compound 22, 1-(3,4,5-Trimethoxy-phenylsulfamoyl)-piperidine-2S-carboxylic acid 4-phenyl-1-(3-phenyl-propyl)-butyl ester] | 382 nM |
